Measurements as given in US20230114728A1 (Venatorx Pharmaceuticals, Inc., priority 2019, published 2023).
In brackets after ≈: the same amount, converted by molar mass. Where two headings read alike, the source gives them in different places.

Tests used:
Type in all cases: cell-based
A. baumannii ATCC 19606 = test: Broth microdilution MIC in CAMHB; conditions: Acinetobacter baumannii, ATCC19606; MHB; read-out: Minimum Inhibitory Concentration, A. baumannii ATCC 19606
In short: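 Per CLSI broth microdilution, colonies were grown 3-5 h at 37° C in cation-adjusted Mueller Hinton broth, then diluted to a starting inoculum of 2-8×10^5 CFU/mL against 2-fold serial compound dilutions. Plates were incubated 16-20 h at 37° C, and MIC was read visually as the lowest concentration with no growth.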

[1] = system: P. aeruginosa (ΔmexAB-oprM); test: Broth microdilution MIC in CAMHB; conditions: Pseudomonas aeruginosa, read-out: Minimum Inhibitory Concentration, P. aeruginosa ΔmexAB-OprM
In short: (§1)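 Hyper-permeable or efflux-deficient strains serve to probe outer-membrane penetration. Growth inhibition is scored visually after 16-20 h at 37° C in CAMHB, starting from 2-8×10^5 CFU/mL.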

E. coli 901C = test: Broth microdilution MIC in CAMHB; conditions: Escherichia coli; E. coli 901C (hyper-permeable); MHB; read-out: Minimum Inhibitory Concentration, E. coli 901C
In short: as §1

[2] = system: K. pneumoniae UMM producing SHV-5 and KPC-2; test: Broth microdilution MIC in CAMHB; conditions: Klebsiella pneumoniae, read-out: Minimum Inhibitory Concentration, K. pneumoniae UMM
In short: as §1

N. gonorrhoeae WHO K = test: Liquid broth MIC in Fastidious broth; conditions: Neisseria gonorrhoeae
In short: (§2)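 Mosaic-PBP2 strains grown 24 h on chocolate agar (36 °C, 5% CO2), then direct-suspended in saline and OD600-adjusted. Twofold compound dilutions in Fastidious broth inoculated at 5×10^5 CFU/mL and incubated ~24 h at 36 °C, 5% CO2. MIC read visually as lowest concentration with <10% growth versus full-growth wells.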

N. gonorrhoeae WHO L = test: Liquid broth MIC in Fastidious broth; conditions: Neisseria gonorrhoeae, Fastidious broth
In short: (§3)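 Colonies were swabbed from chocolate agar after 24 h growth and standardised by optical density at 600 nm. Compounds were serially diluted twofold in Fastidious broth, and bacteria added to give 5×10^5 CFU/mL. After about 24 h at 36 °C in 5% CO2, the lowest concentration allowing under 10% growth was taken as MIC.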

N. gonorrhoeae H041 = test: Liquid broth MIC in Fastidious broth; conditions: Neisseria gonorrhoeae
In short: as §2

N. gonorrhoeae WHO Z = test: Liquid broth MIC in Fastidious broth; conditions: Neisseria gonorrhoeae
In short: as §2

N. gonorrhoeae FA1090 = test: Liquid broth MIC in Fastidious broth; conditions: Neisseria gonorrhoeae, Fastidious broth
In short: as §3

[3] = system: N. gonorrhoeae ATCC 49226; test: Liquid broth MIC in Fastidious broth; conditions: Neisseria gonorrhoeae, ATCC49226, Fastidious broth
In short: as §3

N. gonorrhoeae WHO Q = test: Liquid broth MIC in Fastidious broth; conditions: Neisseria gonorrhoeae
In short: as §2

N. gonorrhoeae WHO G = test: Liquid broth MIC in Fastidious broth; conditions: Neisseria gonorrhoeae, Fastidious broth
In short: as §3

[4] = read-out: Minimum Inhibitory Concentration, N. gonorrhoeae WHO K
[5] = N. gonorrhoeae strain WHO L, read-out: Minimum Inhibitory Concentration, N. gonorrhoeae WHO L
[6] = H041, read-out: Minimum Inhibitory Concentration, N. gonorrhoeae H041
[7] = read-out: Minimum Inhibitory Concentration, N. gonorrhoeae WHO Z
[8] = N. gonorrhoeae strain FA1090, read-out: Minimum Inhibitory Concentration, N. gonorrhoeae FA1090
[9] = N. gonorrhoeae strain ATCC 49226, read-out: Minimum Inhibitory Concentration, N. gonorrhoeae ATCC 49226
[10] = read-out: Minimum Inhibitory Concentration, N. gonorrhoeae WHO Q
[11] = N. gonorrhoeae strain WHO G, read-out: Minimum Inhibitory Concentration, N. gonorrhoeae WHO G

| SMILES | MIC (A. baumannii ATCC 19606) [µg/mL] | MIC [1] [µg/mL] | MIC (E. coli 901C) [µg/mL] | MIC [2] [µg/mL] | MIC (N. gonorrhoeae WHO K; [4]) [µg/mL] | MIC (N. gonorrhoeae WHO L; [5]) [µg/mL] | MIC (N. gonorrhoeae H041; [6]) [µg/mL] | MIC (N. gonorrhoeae WHO Z; [7]) [µg/mL] | MIC (N. gonorrhoeae FA1090; [8]) [µg/mL] | MIC [3, 9] [µg/mL] | MIC (N. gonorrhoeae WHO Q; [10]) [µg/mL] | MIC (N. gonorrhoeae WHO G; [11]) [µg/mL] | MIC (N. gonorrhoeae WHO K; read-out: Minimum Inhibitory Concentration, WHO K) [µg/mL] | MIC (N. gonorrhoeae WHO L; N. gonorrhoeae WHO L, read-out: Minimum Inhibitory Concentration, WHO L) [µg/mL] | MIC (N. gonorrhoeae H041; H041, read-out: Minimum Inhibitory Concentration, H041) [µg/mL] | MIC (N. gonorrhoeae WHO Z; read-out: Minimum Inhibitory Concentration, WHO Z) [µg/mL] | MIC (N. gonorrhoeae FA1090; N. gonorrhoeae FA1090, read-out: Minimum Inhibitory Concentration, FA1090) [µg/mL] | MIC ([3]; N. gonorrhoeae ATCC 49226, read-out: Minimum Inhibitory Concentration, ATCC 49226) [µg/mL] | MIC (N. gonorrhoeae WHO Q; read-out: Minimum Inhibitory Concentration, WHO Q) [µg/mL] | MIC (N. gonorrhoeae WHO G; N. gonorrhoeae WHO G, read-out: Minimum Inhibitory Concentration, WHO G) [µg/mL] |
| --- | --- | --- | --- | --- | --- | --- | --- | --- | --- | --- | --- | --- | --- | --- | --- | --- | --- | --- | --- | --- |
| O=C(O)c1cccc2c1OB(O)[C@@H](NC(=O)C(NC(=O)N1CCN(CC3CNC3)C(=O)C1=O)c1c(F)cc(O)cc1F)C2 (stereo partly drawn) [Example 193, (3R)-3-(2-(4-(azetidin-3-ylmethyl)-2,3-dioxopiperazine-1-carboxamido)-2-(2,6-difluoro-4-hydroxyphenyl)acetamido)-2-hydroxy-3,4-dihydro-2H-benzo[e][1,2]oxaborinine-8-carboxylic acid] | > 128 | 8 to 16 (≈ 13.3 to 26.6 µM) | 0.5 to 1 (≈ 0.831 to 1.66 µM) | 8 to 16 (≈ 13.3 to 26.6 µM) | > 64 | > 64 | > 64 | > 64 | 1 to 2 (≈ 1.66 to 3.33 µM) | > 64 | > 64 | 16 to 32 (≈ 26.6 to 53.2 µM) | – | – | – | – | – | – | – | – |
| CCN1CCN(C(=O)NC(C(=O)N[C@H]2Cc3cccc(C(=O)O)c3OB2O)c2ccc(C(=O)O)c(O)c2)C(=O)C1=O (stereo partly drawn) [Example 196, (3R)-3-(2-(4-carboxy-3-hydroxyphenyl)-2-(4-ethyl-2,3-dioxopiperazine-1-carboxamido)acetamido)-2-hydroxy-3,4-dihydro-2H-benzo[e][1,2]oxaborinine-8-carboxylic acid] | > 128 | 2 to 4 (≈ 3.52 to 7.04 µM) | < 0.25 | 8 to 16 (≈ 14.1 to 28.2 µM) | 4 to 8 (≈ 7.04 to 14.1 µM) | 16 to 32 (≈ 28.2 to 56.3 µM) | 16 to 32 (≈ 28.2 to 56.3 µM) | 4 to 8 (≈ 7.04 to 14.1 µM) | 0.25 to 0.5 (≈ 0.44 to 0.88 µM) | 4 to 8 (≈ 7.04 to 14.1 µM) | 4 to 8 (≈ 7.04 to 14.1 µM) | 1 to 2 (≈ 1.76 to 3.52 µM) | – | – | – | – | – | – | – | – |
| CCN1CCN(C(=O)NC(C(=O)N[C@H]2Cc3cccc(C(=O)O)c3OB2O)c2cc(NS(N)(=O)=O)ccc2F)C(=O)C1=O (stereo partly drawn) [Example 197, (3R)-3-(2-(4-ethyl-2,3-dioxopiperazine-1-carboxamido)-2-(2-fluoro-5-(sulfamoylamino)phenyl)acetamido)-2-hydroxy-3,4-dihydro-2H-benzo[e][1,2]oxaborinine-8-carboxylic acid] | 32 to 64 (≈ 51.6 to 103 µM) | 2 to 4 (≈ 3.22 to 6.45 µM) | < 0.25 | 8 to 16 (≈ 12.9 to 25.8 µM) | 16 to 32 (≈ 25.8 to 51.6 µM) | > 64 | 16 to 32 (≈ 25.8 to 51.6 µM) | 16 to 32 (≈ 25.8 to 51.6 µM) | 0.25 to 0.5 (≈ 0.403 to 0.806 µM) | 16 to 32 (≈ 25.8 to 51.6 µM) | 16 to 32 (≈ 25.8 to 51.6 µM) | 4 to 8 (≈ 6.45 to 12.9 µM) | – | – | – | – | – | – | – | – |
| NS(=O)(=O)Nc1ccc(F)c(C(NC(=O)N2CCN(CCF)C(=O)C2=O)C(=O)N[C@H]2Cc3cccc(C(=O)O)c3OB2O)c1 (stereo partly drawn) [Example 198, (3R)-3-(2-(2-fluoro-5-(sulfamoylamino)phenyl)-2-(4-(2-fluoroethyl)-2,3-dioxopiperazine-1-carboxamido)acetamido)-2-hydroxy-3,4-dihydro-2H-benzo[e][1,2]oxaborinine-8-carboxylic acid] | > 128 | 2 to 4 (≈ 3.13 to 6.27 µM) | < 0.25 | 32 to 64 (≈ 50.1 to 100 µM) | 16 to 32 (≈ 25.1 to 50.1 µM) | > 64 | 16 to 32 (≈ 25.1 to 50.1 µM) | 16 to 32 (≈ 25.1 to 50.1 µM) | 0.25 to 0.5 (≈ 0.392 to 0.783 µM) | 16 to 32 (≈ 25.1 to 50.1 µM) | 16 to 32 (≈ 25.1 to 50.1 µM) | 4 to 8 (≈ 6.27 to 12.5 µM) | – | – | – | – | – | – | – | – |
| CCN1CCN(C(=O)NC(C(=O)N[C@H]2Cc3cccc(C(=O)O)c3OB2O)c2ccc(C(=O)O)c(Cl)c2Cl)C(=O)C1=O (stereo partly drawn) [Example 201, (3R)-3-(2-(4-carboxy-2,3-dichlorophenyl)-2-(4-ethyl-2,3-dioxopiperazine-1-carboxamido)acetamido)-2-hydroxy-3,4-dihydro-2H-benzo[e][1,2]oxaborinine-8-carboxylic acid] | > 128 | 8 to 16 (≈ 12.9 to 25.8 µM) | 0.5 to 1 (≈ 0.805 to 1.61 µM) | > 128 | – | – | – | – | – | – | – | – | 16 to 32 (≈ 25.8 to 51.5 µM) | > 64 | > 64 | 16 to 32 (≈ 25.8 to 51.5 µM) | 1 to 2 (≈ 1.61 to 3.22 µM) | 4 to 8 (≈ 6.44 to 12.9 µM) | 16 to 32 (≈ 25.8 to 51.5 µM) | 4 to 8 (≈ 6.44 to 12.9 µM) |
